Assay results published in patent publication US12109196B2, “Non-sedating dexmedetomidine treatment regimens” (BioXcel Therapeutics, Inc., priority 2019, dated 2024).
Where a name gives a salt, the structure may show the parent alone. Read-outs that look alike come from different tables or passages of the source.

Assays:
[1] = system: agitation in subjects suffering from schizophrenia
Description: (§1) Another Key Objective of the study was to determine the reduction in the level of agitation, as determined by their PEC score, at the doses to achieve a RASS of −1.
(§2) Patients 5, 7, 8 and 9 received placebo.
(§3) CGI-I focused on the severity of agitation rather than the severity of the illness. • (4) After the infusion was stopped, the participants were judged for the suitability for discharge by the principal investigator or designee as witnessed by a return to their baseline level of alertness and awareness with no impairment in balance, gait, and reaction time as determined by the principal investigator or designee. Results (A) Efficacy Study RASS (Richmond Agitation-Sedation Scale)

[2] = system: subjects suffering from schizophrenia
Description: as §1, §2, §3

[3] = Procedure: as §2
The level of dexmedetomidine in the plasma of patients was also measured over the time of infusion.

[4] = system: acute agitation associated with schizophrenia, schizoaffective disorder or schizophreniform disorder; details: 2 hours post-dose
Description: PEC comprised 5 items associated with agitation: poor impulse control, tension, hostility, uncooperativeness, and excitement; each scored 1 (minimum) to 7 (maximum). The PEC, the sum of these 5 subscales, thus ranging from 5 to 35.
Efficacy Analyses: The primary efficacy endpoint of the study was the absolute change from baseline in PEC score at 120 mins (2 hours). The intent to treat population (ITT) was analyzed and consisted of all patients who took any study medication and who had both baseline and at least 1 efficacy assessment after dosing. Analyses were conducted using a restricted maximum likelihood repeated measures mixed model on change from baseline values with baseline as a covariate and timepoint, and its interaction with treatment groups as repeated measures using an unstructured covariance structure. Responder comparisons were made via Fisher's exact test.
There were 5 dose cohorts (20 μg, 60 μg, 80 μg, 120 μg and 180 μg) with 18 active patients (total of 90 patients) and 9 placebo patients (total of 45 patients) in each cohort. Active patients in each of the 5 dose cohorts were compared to placebo patients from all 5 cohorts (pooled placebo group).

Cc1cccc([C@H](C)c2cnc[nH]2)c1C [dexmedetomidine hydrochloride, (+) 4-(S)-[1-(2,3-dimethylphenyl)ethyl]-1H-imidazole]
0.15047 ng/mL: Plasma level concentration ([3]; Patient 11 (Treatment), 60 Mins)
−9.2: PANSS-PEC Total Score, Change from baseline, mean (SD) ([4]; 120 μg)
0.12407 ng/mL: Plasma level concentration ([3]; Patient 11 (Treatment), 45 Mins)
13: PEC value after infusion start ([1]; Patient 2 (treatment arm), 15 Mins) | PEC value after infusion start ([1]; Patient 11 (treatment arm), 0 Mins) | PEC value after infusion start ([1]; Patient 11 (treatment arm), 15 Mins) | PEC value after infusion start ([1]; Patient 12 (treatment arm), 0 Mins) | PEC value after infusion start ([1]; Patient 12 (treatment arm), 15 Mins) | PEC value after infusion start ([1]; Patient 12 (treatment arm), 30 Mins)
−2: RASS value after infusion start ([2]; Patient 1 (treatment arm), 15 minutes)
0.15854 ng/mL: Plasma level concentration ([3]; Patient 12 (Treatment), 75 Mins)
0.07226 ng/mL: Plasma level concentration ([3]; Patient 16 (Treatment), 75 Mins)
0.05453 ng/mL: Plasma level concentration ([3]; Patient 18 (Treatment), 30 Mins)
0.2673 ng/mL: Plasma level concentration ([3]; Patient 12 (Treatment), 105 Mins)
−7.3: PANSS-PEC Total Score, Change from baseline, mean (SD) ([4]; 80 μg)
10: PEC value after infusion start ([1]; Patient 3 (treatment arm), 30 Mins) | PEC value after infusion start ([1]; Patient 12 (treatment arm), 45 Mins) | PEC value after infusion start ([1]; Patient 12 (treatment arm), 60 Mins) | PEC value after infusion start ([1]; Patient 14 (treatment arm), 0 Mins) | PEC value after infusion start ([1]; Patient 16 (treatment arm), 0 Mins) | PEC value after infusion start ([1]; Patient 17 (treatment arm), 0 Mins)
0.04836 ng/mL: Plasma level concentration ([3]; Patient 18 (Treatment), 15 Mins)
0.04101 ng/mL: Plasma level concentration ([3]; Patient 11 (Treatment), 15 Mins)
0.4063 ng/mL: Plasma level concentration ([3]; Patient 14 (Treatment), 60 Mins)
0.23783 ng/mL: Plasma level concentration ([3]; Patient 12 (Treatment), 90 Mins)
0.04653 ng/mL: Plasma level concentration ([3]; Patient 14 (Treatment), 45 Mins)
0.03993 ng/mL: Plasma level concentration ([3]; Patient 17 (Treatment), 45 Mins)
−10.8: PANSS-PEC Total Score, Change from baseline, mean (SD) ([4]; 180 μg)
0.0443 ng/mL: Plasma level concentration ([3]; Patient 4 (Treatment), 90 Mins)
0.01472 ng/mL: Plasma level concentration ([3]; Patient 1 (Treatment), 30 Mins)
BLQ: Plasma level concentration ([3]; Patient 1 (Treatment), 0 Mins) | Plasma level concentration ([3]; Patient 2 (Treatment), 0 Mins) | Plasma level concentration ([3]; Patient 2 (Treatment), 30 Mins) | Plasma level concentration ([3]; Patient 3 (Treatment), 30 Mins) | Plasma level concentration ([3]; Patient 3 (Treatment), 45 Mins) | Plasma level concentration ([3]; Patient 4 (Treatment), 0 Mins) | Plasma level concentration ([3]; Patient 4 (Treatment), 15 Mins) | Plasma level concentration ([3]; Patient 4 (Treatment), 30 Mins) | Plasma level concentration ([3]; Patient 4 (Treatment), 45 Mins) | Plasma level concentration ([3]; Patient 4 (Treatment), 60 Mins) | Plasma level concentration ([3]; Patient 4 (Treatment), 75 Mins) | Plasma level concentration ([3]; Patient 11 (Treatment), 0 Mins) | Plasma level concentration ([3]; Patient 12 (Treatment), 0 Mins) | Plasma level concentration ([3]; Patient 12 (Treatment), 15 Mins) | Plasma level concentration ([3]; Patient 14 (Treatment), 0 Mins) | Plasma level concentration ([3]; Patient 14 (Treatment), 15 Mins) | Plasma level concentration ([3]; Patient 16 (Treatment), 0 Mins) | Plasma level concentration ([3]; Patient 17 (Treatment), 0 Mins) | Plasma level concentration ([3]; Patient 17 (Treatment), 30 Mins) | Plasma level concentration ([3]; Patient 18 (Treatment), 0 Mins)
0.01587 ng/mL: Plasma level concentration ([3]; Patient 17 (Treatment), 15 Mins)
0.04117 ng/mL: Plasma level concentration ([3]; Patient 16 (Treatment), 45 Mins)
0.00256 ng/mL: Plasma level concentration ([3]; Patient 16 (Treatment), 15 Mins)
1: RASS value after infusion start ([2]; Patient 1 (treatment arm), 0 minutes) | RASS value after infusion start ([2]; Patient 3 (treatment arm), 0 minutes) | RASS value after infusion start ([2]; Patient 4 (treatment arm), 0 minutes) | RASS value after infusion start ([2]; Patient 11 (treatment arm), 0 minutes) | RASS value after infusion start ([2]; Patient 12 (treatment arm), 0 minutes) | RASS value after infusion start ([2]; Patient 14 (treatment arm), 0 minutes) | RASS value after infusion start ([2]; Patient 16 (treatment arm), 0 minutes) | RASS value after infusion start ([2]; Patient 17 (treatment arm), 0 minutes)
8: PEC value after infusion start ([1]; Patient 4 (treatment arm), 30 Mins) | PEC value after infusion start ([1]; Patient 4 (treatment arm), 45 Mins) | PEC value after infusion start ([1]; Patient 12 (treatment arm), 75 Mins) | PEC value after infusion start ([1]; Patient 17 (treatment arm), 15 Mins)
0.06291 ng/mL: Plasma level concentration ([3]; Patient 11 (Treatment), 30 Mins)
0.04487 ng/mL: Plasma level concentration ([3]; Patient 12 (Treatment), 30 Mins)
−1: RASS value after infusion start ([2]; Patient 2 (treatment arm), 75 minutes) | RASS value after infusion start ([2]; Patient 3 (treatment arm), 60 minutes) | RASS value after infusion start ([2]; Patient 11 (treatment arm), 75 minutes) | RASS value after infusion start ([2]; Patient 12 (treatment arm), 120 minutes) | RASS value after infusion start ([2]; Patient 14 (treatment arm), 75 minutes) | RASS value after infusion start ([2]; Patient 16 (treatment arm), 75 minutes) | RASS value after infusion start ([2]; Patient 17 (treatment arm), 45 minutes) | RASS value after infusion start ([2]; Patient 18 (treatment arm), 15 minutes)
0.06788 ng/mL: Plasma level concentration ([3]; Patient 16 (Treatment), 60 Mins)
12: PEC value after infusion start ([1]; Patient 2 (treatment arm), 30 Mins) | PEC value after infusion start ([1]; Patient 3 (treatment arm), 0 Mins) | PEC value after infusion start ([1]; Patient 3 (treatment arm), 15 Mins)
0.02245 ng/mL: Plasma level concentration ([3]; Patient 1 (Treatment), 15 Mins)
5: PEC value after infusion start ([1]; Patient 1 (treatment arm), 15 Mins) | PEC value after infusion start ([1]; Patient 12 (treatment arm), 105 Mins) | PEC value after infusion start ([1]; Patient 14 (treatment arm), 60 Mins) | PEC value after infusion start ([1]; Patient 14 (treatment arm), 75 Mins) | PEC value after infusion start ([1]; Patient 16 (treatment arm), 75 Mins) | PEC value after infusion start ([1]; Patient 17 (treatment arm), 45 Mins)
6: PEC value after infusion start ([1]; Patient 3 (treatment arm), 60 Mins) | PEC value after infusion start ([1]; Patient 12 (treatment arm), 90 Mins) | PEC value after infusion start ([1]; Patient 14 (treatment arm), 30 Mins) | PEC value after infusion start ([1]; Patient 14 (treatment arm), 45 Mins) | PEC value after infusion start ([1]; Patient 16 (treatment arm), 30 Mins) | PEC value after infusion start ([1]; Patient 16 (treatment arm), 45 Mins)
9: Patients (out of 10) in the treatment arm with agitation reduced to a PEC score of 7 or below ([1]; IV infusion) | PEC value after infusion start ([1]; Patient 1 (treatment arm), 0 Mins) | PEC value after infusion start ([1]; Patient 2 (treatment arm), 60 Mins) | PEC value after infusion start ([1]; Patient 4 (treatment arm), 0 Mins) | PEC value after infusion start ([1]; Patient 4 (treatment arm), 15 Mins) | PEC value after infusion start ([1]; Patient 11 (treatment arm), 45 Mins) | PEC value after infusion start ([1]; Patient 11 (treatment arm), 60 Mins) | PEC value after infusion start ([1]; Patient 14 (treatment arm), 15 Mins) | PEC value after infusion start ([1]; Patient 16 (treatment arm), 15 Mins) | Patients (out of 10) in the treatment arm who achieved a RASS score of at least −1 ([2]; IV infusion from 0.2 mcg/kg/hr rising 0.1 mcg/kg/hr every 30 minutes)
16: PEC value after infusion start ([1]; Patient 2 (treatment arm), 0 Mins)
7: Subjects (of 10) with >=50% reduction in PEC score ([1]; IV route) | PEC value after infusion start ([1]; Patient 2 (treatment arm), 75 Mins) | PEC value after infusion start ([1]; Patient 3 (treatment arm), 45 Mins) | PEC value after infusion start ([1]; Patient 4 (treatment arm), 60 Mins) | PEC value after infusion start ([1]; Patient 4 (treatment arm), 75 Mins) | PEC value after infusion start ([1]; Patient 4 (treatment arm), 90 Mins) | PEC value after infusion start ([1]; Patient 4 (treatment arm), 105 Mins) | PEC value after infusion start ([1]; Patient 4 (treatment arm), 120 Mins) | PEC value after infusion start ([1]; Patient 4 (treatment arm), 135 Mins) | PEC value after infusion start ([1]; Patient 11 (treatment arm), 75 Mins) | PEC value after infusion start ([1]; Patient 16 (treatment arm), 60 Mins) | PEC value after infusion start ([1]; Patient 17 (treatment arm), 30 Mins)
0: RASS value after infusion start ([2]; Patient 2 (treatment arm), 30 minutes) | RASS value after infusion start ([2]; Patient 2 (treatment arm), 60 minutes) | RASS value after infusion start ([2]; Patient 3 (treatment arm), 30 minutes) | RASS value after infusion start ([2]; Patient 3 (treatment arm), 45 minutes) | RASS value after infusion start ([2]; Patient 4 (treatment arm), 30 minutes) | RASS value after infusion start ([2]; Patient 4 (treatment arm), 60 minutes) | RASS value after infusion start ([2]; Patient 4 (treatment arm), 90 minutes) | RASS value after infusion start ([2]; Patient 4 (treatment arm), 120 minutes) | RASS value after infusion start ([2]; Patient 4 (treatment arm), […]) | RASS value after infusion start ([2]; Patient 11 (treatment arm), 30 minutes) | RASS value after infusion start ([2]; Patient 11 (treatment arm), 60 minutes) | RASS value after infusion start ([2]; Patient 12 (treatment arm), 30 minutes) | RASS value after infusion start ([2]; Patient 12 (treatment arm), 60 minutes) | RASS value after infusion start ([2]; Patient 12 (treatment arm), 90 minutes) | RASS value after infusion start ([2]; Patient 14 (treatment arm), 30 minutes) | RASS value after infusion start ([2]; Patient 14 (treatment arm), 60 minutes) | RASS value after infusion start ([2]; Patient 16 (treatment arm), 30 minutes) | RASS value after infusion start ([2]; Patient 16 (treatment arm), 60 minutes) | RASS value after infusion start ([2]; Patient 17 (treatment arm), 30 minutes) | RASS value after infusion start ([2]; Patient 18 (treatment arm), 0 minutes)
0.05051 ng/mL: Plasma level concentration ([3]; Patient 12 (Treatment), 45 Mins)
11: PEC value after infusion start ([1]; Patient 2 (treatment arm), 45 Mins) | PEC value after infusion start ([1]; Patient 11 (treatment arm), 30 Mins)
0.1086 ng/mL: Plasma level concentration ([3]; Patient 12 (Treatment), 60 Mins)
3: RASS value after infusion start ([2]; Patient 2 (treatment arm), 0 minutes)
0.05266 ng/mL: Plasma level concentration ([3]; Patient 14 (Treatment), 30 Mins)
0.01559 ng/mL: Plasma level concentration ([3]; Patient 16 (Treatment), 30 Mins)
